Data published in ChEMBL document CHEMBL4715821, “Discovery of 4-ethoxy-7H-pyrrolo[2,3-d]pyrimidin-2-amines as potent, selective and orally bioavailable LRRK2 inhibitors” (Bioorg Med Chem Lett, 2018).

Tests used:
[1] = target: Rhodopsin kinase GRK7 (Homo sapiens) (UniProt Q8WTQ7); test: Inhibition of wild-type human full length GRK7 (M1 to L553 residues) expressed in mammalian expression system assessed as residual activity at 1 uM by Kinomescan method relative to control
[2] = target: Tyrosine-protein kinase receptor TYRO3 (Homo sapiens) (UniProt Q06418); test: Inhibition of wild-type human partial length TYRO3 (S497 to T814 residues) expressed in bacterial expression system assessed as residual activity at 1 uM by Kinomescan method relative to control
[3] = target: Mitogen-activated protein kinase kinase kinase kinase 1 (Homo sapiens) (UniProt Q92918); test: Inhibition of wild-type human full length HPK1 (M1 to R799 residues) expressed in bacterial expression system assessed as residual activity at 1 uM by Kinomescan method relative to control
[4] = target: Bone morphogenetic protein receptor type-2 (Homo sapiens) (UniProt Q13873); test: Inhibition of wild-type human partial length BMPR2 (R179 to Q526 residues) expressed in mammalian expression system assessed as residual activity at 1 uM by Kinomescan method relative to control
[5] = target: Serine/threonine-protein kinase pim-3 (Homo sapiens) (UniProt Q86V86); test: Inhibition of wild-type human partial length PIM3 (G16 to A317 residues) expressed in bacterial expression system assessed as residual activity at 1 uM by Kinomescan method relative to control
[6] = target: Vascular endothelial growth factor receptor 1 (Homo sapiens) (UniProt P17948); test: Inhibition of wild-type human partial length FLT1 (R781 to F1239 residues) expressed in bacterial expression system assessed as residual activity at 1 uM by Kinomescan method relative to control
[7] = target: CDK2/Cyclin A1 (Homo sapiens) (UniProt P24941+P78396); test: Inhibition of CDK2/Cyclin A1 (unknown origin) assessed as residual activity at 1 uM by Kinomescan method relative to control; assay type: protein-complex assay
[8] = target: Mitogen-activated protein kinase kinase kinase 12 (Homo sapiens) (UniProt Q12852); test: Inhibition of wild-type human full length DLK (M1 to P859 residues) expressed in mammalian expression system assessed as residual activity at 1 uM by Kinomescan method relative to control
[9] = target: Dual specificity testis-specific protein kinase 1 (Homo sapiens) (UniProt Q15569); test: Inhibition of wild-type human full length TESK1 (R37 to S626 residues) expressed in bacterial expression system assessed as residual activity at 1 uM by Kinomescan method relative to control
[10] = target: Lymphokine-activated killer T-cell-originated protein kinase (Homo sapiens) (UniProt Q96KB5); test: Inhibition of PBK (unknown origin) assessed as residual activity at 1 uM by Kinomescan method relative to control
[11] = target: T1, Interleukin-1 receptor-associated kinase 4 (Homo sapiens) (UniProt Q9NWZ3); test: Inhibition of wild-type human partial length IRAK4 (M1 to S460 residues) expressed in mammalian expression system assessed as residual activity at 1 uM by Kinomescan method relative to control
T1 sequence (whole entry): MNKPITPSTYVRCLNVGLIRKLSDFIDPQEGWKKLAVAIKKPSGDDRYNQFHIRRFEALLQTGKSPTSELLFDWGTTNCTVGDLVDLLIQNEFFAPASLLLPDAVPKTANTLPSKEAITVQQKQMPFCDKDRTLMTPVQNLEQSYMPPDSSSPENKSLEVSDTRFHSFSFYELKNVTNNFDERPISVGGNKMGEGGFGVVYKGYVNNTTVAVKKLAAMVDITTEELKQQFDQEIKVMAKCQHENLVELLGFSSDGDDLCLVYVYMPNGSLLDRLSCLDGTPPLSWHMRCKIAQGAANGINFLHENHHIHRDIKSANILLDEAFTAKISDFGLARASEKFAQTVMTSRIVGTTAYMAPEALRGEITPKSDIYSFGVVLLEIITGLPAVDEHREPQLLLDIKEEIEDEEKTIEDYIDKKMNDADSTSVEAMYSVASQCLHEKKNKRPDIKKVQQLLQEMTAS

[12] = target: T2, Mitogen-activated protein kinase kinase kinase kinase 3 (Homo sapiens) (UniProt Q8IVH8); test: Inhibition of wild-type human partial length MAP4K3 (M1 to D301 residues) expressed in bacterial expression system assessed as residual activity at 1 uM by Kinomescan method relative to control
T2 sequence (whole entry): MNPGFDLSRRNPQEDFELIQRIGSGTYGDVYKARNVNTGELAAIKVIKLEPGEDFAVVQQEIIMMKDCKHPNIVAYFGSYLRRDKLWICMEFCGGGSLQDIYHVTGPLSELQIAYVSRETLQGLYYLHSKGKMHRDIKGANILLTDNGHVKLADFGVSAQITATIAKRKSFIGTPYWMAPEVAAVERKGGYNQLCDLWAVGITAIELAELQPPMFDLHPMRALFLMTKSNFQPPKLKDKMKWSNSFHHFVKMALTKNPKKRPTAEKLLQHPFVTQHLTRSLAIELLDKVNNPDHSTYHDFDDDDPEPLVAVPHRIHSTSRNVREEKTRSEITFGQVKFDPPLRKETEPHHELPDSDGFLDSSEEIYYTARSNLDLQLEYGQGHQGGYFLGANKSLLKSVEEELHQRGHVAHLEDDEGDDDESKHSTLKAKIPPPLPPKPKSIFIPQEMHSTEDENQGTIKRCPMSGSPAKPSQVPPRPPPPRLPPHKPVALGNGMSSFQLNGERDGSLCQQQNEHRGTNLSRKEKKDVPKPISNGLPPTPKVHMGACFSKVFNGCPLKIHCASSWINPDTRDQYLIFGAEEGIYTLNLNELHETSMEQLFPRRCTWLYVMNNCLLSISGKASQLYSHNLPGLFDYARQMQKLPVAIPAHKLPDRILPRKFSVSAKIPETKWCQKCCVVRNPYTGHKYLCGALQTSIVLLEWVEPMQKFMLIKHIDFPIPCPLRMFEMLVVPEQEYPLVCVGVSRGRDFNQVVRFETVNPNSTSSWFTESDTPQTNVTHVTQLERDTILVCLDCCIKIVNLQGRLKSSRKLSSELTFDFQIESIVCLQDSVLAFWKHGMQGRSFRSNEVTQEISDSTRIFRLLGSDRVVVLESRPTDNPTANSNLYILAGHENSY

Chain of Mitogen-activated protein kinase kinase kinase 12 (Homo sapiens) (Q12852 whole entry, looked up, the tested form may be a part): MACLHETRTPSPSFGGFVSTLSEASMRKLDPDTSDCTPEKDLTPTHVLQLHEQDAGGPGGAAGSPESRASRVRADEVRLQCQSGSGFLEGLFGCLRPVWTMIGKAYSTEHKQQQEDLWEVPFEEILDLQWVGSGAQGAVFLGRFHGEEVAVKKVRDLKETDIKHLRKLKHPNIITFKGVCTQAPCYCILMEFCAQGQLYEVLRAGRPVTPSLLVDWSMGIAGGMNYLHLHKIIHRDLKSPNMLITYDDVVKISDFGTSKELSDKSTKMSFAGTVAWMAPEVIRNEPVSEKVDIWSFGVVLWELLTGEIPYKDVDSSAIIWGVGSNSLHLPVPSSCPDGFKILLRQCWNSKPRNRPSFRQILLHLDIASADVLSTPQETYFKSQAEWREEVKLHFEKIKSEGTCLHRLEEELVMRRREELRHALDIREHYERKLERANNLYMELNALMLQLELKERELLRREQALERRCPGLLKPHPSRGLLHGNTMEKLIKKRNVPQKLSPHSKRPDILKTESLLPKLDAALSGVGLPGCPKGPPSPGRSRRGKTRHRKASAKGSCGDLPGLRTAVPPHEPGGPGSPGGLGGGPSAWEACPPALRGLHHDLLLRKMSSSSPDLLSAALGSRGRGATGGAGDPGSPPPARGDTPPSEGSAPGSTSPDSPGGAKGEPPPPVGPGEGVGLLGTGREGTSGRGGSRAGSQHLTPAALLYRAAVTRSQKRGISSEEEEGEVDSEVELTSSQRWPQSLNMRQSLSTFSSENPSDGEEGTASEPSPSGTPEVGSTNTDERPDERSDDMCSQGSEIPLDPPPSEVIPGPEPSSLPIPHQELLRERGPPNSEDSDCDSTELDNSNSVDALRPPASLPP
Chain of Mitogen-activated protein kinase kinase kinase kinase 1 (Homo sapiens) (Q92918 whole entry, looked up, the tested form may be a part): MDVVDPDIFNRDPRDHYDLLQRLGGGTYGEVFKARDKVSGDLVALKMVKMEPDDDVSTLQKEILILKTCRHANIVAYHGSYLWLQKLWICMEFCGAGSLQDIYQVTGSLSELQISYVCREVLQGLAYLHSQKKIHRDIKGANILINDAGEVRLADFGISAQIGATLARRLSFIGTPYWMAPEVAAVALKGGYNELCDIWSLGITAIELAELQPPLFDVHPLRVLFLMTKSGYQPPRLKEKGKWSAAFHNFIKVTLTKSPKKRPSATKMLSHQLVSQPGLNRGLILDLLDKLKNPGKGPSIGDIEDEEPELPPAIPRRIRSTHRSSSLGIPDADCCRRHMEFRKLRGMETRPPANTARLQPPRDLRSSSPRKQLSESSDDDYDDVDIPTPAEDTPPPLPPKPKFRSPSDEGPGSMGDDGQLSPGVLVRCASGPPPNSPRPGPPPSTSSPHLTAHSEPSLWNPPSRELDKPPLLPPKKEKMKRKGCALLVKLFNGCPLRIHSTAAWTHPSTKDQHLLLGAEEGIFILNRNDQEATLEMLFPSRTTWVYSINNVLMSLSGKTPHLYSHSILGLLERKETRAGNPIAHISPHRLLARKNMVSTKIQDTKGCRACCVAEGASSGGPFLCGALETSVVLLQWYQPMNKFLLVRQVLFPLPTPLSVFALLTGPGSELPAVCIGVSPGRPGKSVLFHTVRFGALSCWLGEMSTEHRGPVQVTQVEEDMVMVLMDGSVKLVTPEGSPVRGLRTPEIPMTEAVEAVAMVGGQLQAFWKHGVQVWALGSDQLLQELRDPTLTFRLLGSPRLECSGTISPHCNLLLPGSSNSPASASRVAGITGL
Chain of Vascular endothelial growth factor receptor 1 (Homo sapiens) (P17948 whole entry, the tested form may be a part): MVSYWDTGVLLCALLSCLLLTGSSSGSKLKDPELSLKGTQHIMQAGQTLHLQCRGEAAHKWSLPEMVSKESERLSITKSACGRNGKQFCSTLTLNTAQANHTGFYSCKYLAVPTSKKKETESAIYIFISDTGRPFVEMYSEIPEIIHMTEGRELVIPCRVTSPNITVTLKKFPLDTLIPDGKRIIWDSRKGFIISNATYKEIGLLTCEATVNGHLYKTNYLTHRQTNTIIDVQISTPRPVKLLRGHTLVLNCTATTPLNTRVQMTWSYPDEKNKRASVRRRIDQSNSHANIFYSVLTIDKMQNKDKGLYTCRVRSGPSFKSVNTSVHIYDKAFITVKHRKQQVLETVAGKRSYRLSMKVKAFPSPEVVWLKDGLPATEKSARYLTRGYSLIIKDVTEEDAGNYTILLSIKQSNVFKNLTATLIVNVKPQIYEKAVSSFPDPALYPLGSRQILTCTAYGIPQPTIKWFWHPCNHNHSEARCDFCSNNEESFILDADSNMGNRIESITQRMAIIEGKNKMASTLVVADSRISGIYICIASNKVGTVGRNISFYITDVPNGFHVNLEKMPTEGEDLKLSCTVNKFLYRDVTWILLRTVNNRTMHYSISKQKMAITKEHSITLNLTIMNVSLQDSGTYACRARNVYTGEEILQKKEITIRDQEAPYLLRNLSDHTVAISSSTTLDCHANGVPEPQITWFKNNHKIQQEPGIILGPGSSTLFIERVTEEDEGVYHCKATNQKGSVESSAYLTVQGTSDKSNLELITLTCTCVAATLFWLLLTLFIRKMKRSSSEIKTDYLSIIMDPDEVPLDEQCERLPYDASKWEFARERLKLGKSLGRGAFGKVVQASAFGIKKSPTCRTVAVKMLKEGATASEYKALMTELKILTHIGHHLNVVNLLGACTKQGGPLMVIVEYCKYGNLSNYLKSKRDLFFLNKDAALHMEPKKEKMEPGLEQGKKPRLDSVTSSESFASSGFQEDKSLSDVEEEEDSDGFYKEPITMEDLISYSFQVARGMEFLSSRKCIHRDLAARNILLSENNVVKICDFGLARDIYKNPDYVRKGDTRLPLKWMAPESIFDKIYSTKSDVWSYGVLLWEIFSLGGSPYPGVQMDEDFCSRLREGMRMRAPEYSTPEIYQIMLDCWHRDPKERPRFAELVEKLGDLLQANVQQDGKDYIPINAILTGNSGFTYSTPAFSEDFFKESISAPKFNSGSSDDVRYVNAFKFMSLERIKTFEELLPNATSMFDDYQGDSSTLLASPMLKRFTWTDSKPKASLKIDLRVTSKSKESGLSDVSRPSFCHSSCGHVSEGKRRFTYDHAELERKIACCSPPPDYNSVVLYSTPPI
Chain of Lymphokine-activated killer T-cell-originated protein kinase (Homo sapiens) (Q96KB5 whole entry, the tested form may be a part): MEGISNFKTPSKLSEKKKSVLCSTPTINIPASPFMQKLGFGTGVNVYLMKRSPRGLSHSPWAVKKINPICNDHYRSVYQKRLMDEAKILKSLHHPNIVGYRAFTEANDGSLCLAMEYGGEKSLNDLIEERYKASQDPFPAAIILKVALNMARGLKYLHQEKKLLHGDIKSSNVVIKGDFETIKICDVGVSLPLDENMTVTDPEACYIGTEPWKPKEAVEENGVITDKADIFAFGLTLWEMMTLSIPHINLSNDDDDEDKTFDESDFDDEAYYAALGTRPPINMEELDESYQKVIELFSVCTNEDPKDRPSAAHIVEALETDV
Chain of Bone morphogenetic protein receptor type-2 (Homo sapiens) (Q13873 whole entry, the tested form may be a part): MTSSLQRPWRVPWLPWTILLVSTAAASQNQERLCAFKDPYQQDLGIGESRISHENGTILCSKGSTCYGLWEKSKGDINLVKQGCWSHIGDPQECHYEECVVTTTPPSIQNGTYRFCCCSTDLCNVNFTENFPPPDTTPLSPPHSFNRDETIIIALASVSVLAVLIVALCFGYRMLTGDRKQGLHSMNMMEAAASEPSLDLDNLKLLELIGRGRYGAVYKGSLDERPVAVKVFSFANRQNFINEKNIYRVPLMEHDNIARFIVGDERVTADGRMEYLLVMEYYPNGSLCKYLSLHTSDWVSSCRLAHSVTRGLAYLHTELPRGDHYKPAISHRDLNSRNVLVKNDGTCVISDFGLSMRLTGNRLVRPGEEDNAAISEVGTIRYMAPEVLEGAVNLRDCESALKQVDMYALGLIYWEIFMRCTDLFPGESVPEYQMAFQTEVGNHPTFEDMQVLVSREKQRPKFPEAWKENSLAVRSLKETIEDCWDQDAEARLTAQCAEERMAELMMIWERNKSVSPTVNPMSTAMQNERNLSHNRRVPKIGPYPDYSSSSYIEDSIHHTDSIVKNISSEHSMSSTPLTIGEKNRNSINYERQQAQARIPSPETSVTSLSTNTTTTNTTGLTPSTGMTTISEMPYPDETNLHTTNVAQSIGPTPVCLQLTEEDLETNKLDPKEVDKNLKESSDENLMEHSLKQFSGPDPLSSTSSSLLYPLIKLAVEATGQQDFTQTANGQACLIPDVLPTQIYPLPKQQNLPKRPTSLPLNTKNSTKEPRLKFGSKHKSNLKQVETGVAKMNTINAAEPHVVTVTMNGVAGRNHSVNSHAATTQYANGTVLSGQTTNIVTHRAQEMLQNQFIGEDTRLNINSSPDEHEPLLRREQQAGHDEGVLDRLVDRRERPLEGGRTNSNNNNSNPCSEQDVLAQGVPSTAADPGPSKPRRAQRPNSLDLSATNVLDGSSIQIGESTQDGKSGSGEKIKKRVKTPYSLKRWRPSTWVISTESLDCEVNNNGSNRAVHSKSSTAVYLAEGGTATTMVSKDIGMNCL

CCOc1nc(Nc2ccc(C(=O)N3CCOCC3)cc2OC)nc2[nH]ccc12
Activity [1]: 98.4% | Activity [2]: 109% | Activity [3]: 86.6% | Activity [4]: 72.2% | Activity [5]: 99.9% | Activity [6]: 97.5% | Activity [7]: 74% | Activity [8]: 93.9% | Activity [9]: 104% | Activity [10]: 101% | Activity [11]: 104% | Activity [12]: 88.9%
